Consider 2 compounds from article PMC12615753, “Glutathione as a taste modulator: molecular mechanisms of interaction with umami and sweet taste receptors” (Food Chemistry: Molecular Sciences, 2025).

The target in this assay is T1, hTAS1R1 R151A/rTAS1R3 (Homo sapiens, UniProt Q7RTX1, R151A).
T1 construct: UniProtKB number Q7RTX1–1); expressed in transfected cells; host or cells: HEK293T/17 (ATCC CRL-11268)
T1 sequence (Q7RTX1 21-841 R151A): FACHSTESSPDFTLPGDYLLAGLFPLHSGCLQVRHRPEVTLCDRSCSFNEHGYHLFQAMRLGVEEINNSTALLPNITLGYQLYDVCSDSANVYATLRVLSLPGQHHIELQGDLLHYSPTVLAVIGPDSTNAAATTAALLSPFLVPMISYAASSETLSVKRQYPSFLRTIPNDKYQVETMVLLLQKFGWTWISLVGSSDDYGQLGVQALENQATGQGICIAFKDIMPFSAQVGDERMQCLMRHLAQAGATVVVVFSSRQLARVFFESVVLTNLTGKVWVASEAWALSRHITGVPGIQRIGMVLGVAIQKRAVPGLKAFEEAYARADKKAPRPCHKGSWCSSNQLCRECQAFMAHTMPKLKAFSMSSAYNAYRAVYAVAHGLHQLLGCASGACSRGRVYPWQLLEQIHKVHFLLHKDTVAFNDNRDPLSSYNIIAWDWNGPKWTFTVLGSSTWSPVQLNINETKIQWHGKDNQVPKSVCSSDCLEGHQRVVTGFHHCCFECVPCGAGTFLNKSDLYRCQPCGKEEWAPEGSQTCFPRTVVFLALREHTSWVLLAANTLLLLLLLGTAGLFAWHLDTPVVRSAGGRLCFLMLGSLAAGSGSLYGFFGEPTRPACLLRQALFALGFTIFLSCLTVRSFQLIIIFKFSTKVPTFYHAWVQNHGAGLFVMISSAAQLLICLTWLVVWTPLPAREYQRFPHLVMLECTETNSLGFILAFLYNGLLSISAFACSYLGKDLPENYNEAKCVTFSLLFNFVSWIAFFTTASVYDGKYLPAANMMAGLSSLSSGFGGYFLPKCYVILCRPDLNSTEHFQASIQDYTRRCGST
T1 sequence (Q923K1 21-858 partner): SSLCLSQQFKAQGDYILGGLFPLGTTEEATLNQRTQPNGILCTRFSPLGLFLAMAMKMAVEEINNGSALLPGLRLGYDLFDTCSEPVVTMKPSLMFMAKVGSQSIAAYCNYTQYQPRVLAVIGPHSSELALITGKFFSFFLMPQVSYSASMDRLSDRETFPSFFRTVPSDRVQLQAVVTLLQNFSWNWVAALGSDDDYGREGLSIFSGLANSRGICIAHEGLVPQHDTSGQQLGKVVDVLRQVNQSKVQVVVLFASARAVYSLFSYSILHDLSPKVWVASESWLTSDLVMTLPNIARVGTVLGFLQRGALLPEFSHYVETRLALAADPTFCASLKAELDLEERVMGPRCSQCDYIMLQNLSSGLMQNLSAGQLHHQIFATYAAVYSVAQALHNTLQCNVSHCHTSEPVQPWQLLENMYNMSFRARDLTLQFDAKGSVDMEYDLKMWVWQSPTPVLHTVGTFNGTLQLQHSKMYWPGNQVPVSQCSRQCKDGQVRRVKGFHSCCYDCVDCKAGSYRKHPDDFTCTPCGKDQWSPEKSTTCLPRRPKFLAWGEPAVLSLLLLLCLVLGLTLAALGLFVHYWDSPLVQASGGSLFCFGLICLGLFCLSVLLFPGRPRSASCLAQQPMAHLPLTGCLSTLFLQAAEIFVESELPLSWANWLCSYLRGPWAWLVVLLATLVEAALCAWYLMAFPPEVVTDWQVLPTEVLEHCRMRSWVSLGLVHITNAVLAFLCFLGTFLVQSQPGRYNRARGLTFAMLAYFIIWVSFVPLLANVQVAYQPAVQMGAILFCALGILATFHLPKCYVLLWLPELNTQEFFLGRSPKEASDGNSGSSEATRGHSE
Kind of assay: Calcium assay, hTAS1R1 mutant co-expressed with rTAS1R3. Format: cell-based, rat. The text has this:
Chimeric Gα proteins, such as Gα16Gust44, Gα16Gi3 or Gα15i2, are widely used in the functional expression of TAS1R receptors ([Backes et al., 2015]; [Suess et al., 2015]; [Toda et al., 2021], [Toda et al., 2013], [Toda et al., 2018]; [Zhang et al., 2008]). Chimeric Gα15i2 (([Toda et al., 2013]), Supplementary data) was generated by replacing the last five residues of the C-terminal tail of rat Gα15i2 (EINLL) (UniProt number G3V6N8; https://www.uniprot.org/uniprot/) with the counterpart sequence from human GNAI2 (DCGLF) (UniProt number P04899-1) and cloning into the pcDNA3.1/Hygro vector (Invitrogen, Thermo Fisher Scientific, Illkirch, France) between the HindIII and NotI restriction sites, resulting in the plasmid pcDNA3.1-Gα15i2. Chimeric Gα16Gust44 construct have already been reported ([Raliou et al., 2011]). Briefly, Gα16Gust44 was generated by replacing the C-terminal of Gα16 with the C-terminal 44 residues of gustducin. As previously described, hTAS1R1 was amplified from human fungiform papillae cDNA and cloned and inserted into pcDNA3 (Invitrogen), generating pcDNA3-TAS1R1-WT (wild-type) ([Raliou et al., 2011]). […] The cDNA coding region of rTAS1R3 was synthesized with optimized-codon usage for human expression (Genewiz) and was cloned and inserted into the mammalian pcDNA4/myc-HisA (Invitrogen) expression vector between the EcoRI and NotI restriction sites, resulting in the plasmid pcDNA4-rTAS1R3. […] The sequence integrity of all the plasmid constructs was verified via automated DNA sequencing (Genewiz).
The hTAS1R1 mutants were co-expressed with the rTAS1R3 subunit in HEK293 cells. […] As a control, the functionality of the mutated receptors was checked after stimulation with S807 (Fig. S8), which interacts with TAS1R1-TMD ([Zhang et al., 2008]).

As for `N[C@@H](CCC(=O)N[C@@H](CS)C(=O)NCC(=O)O)C(=O)O` [GSH, γ-L-glutamyl-L-cysteinyl-glycine], the EC50 (as a rule, the midpoint of the concentration-response curve) is 2.59 ± 1.59 mM. In addition, the “effect of the added compound (1 mM) on the response to L-Glu” value (R151A) is “did not affect”. For the same compound, for the setting “R151A, GSH”, the “Max ∆F/F0” value is listed as 0.31 ± 0.08 and the “R1 = mutant EC50/WT EC50” value was 1.0.

Regarding `CCCC(CCC)NC(=O)c1ccc2c(c1)OCO2` [S807, N-(heptan-4-yl)benzo[d][1,3]dioxole-5-carboxamide, reference compound], the “response to the agonist alone, vs WT” value (R151A) is recorded as “strongly affected”.
